Laboratory results reported in patent US12290535B2, “Langerin+ cell targeting” (Max-Planck-Gesellschaft zur Förderung der Wissenschaften …, priority 2018, dated 2025).

Target: T1, Langerin CRD (Homo sapiens, UniProt Q9UJ71, V278A)
T1 construct: residues 193 to 328; made in house; host or cells: E. coli BL21* (DE3)
Assay: 15N HSQC NMR titration (KD determination)
Assay type: binding
Experimental: Langerin and DC-SIGN carbohydrate recognition domain. Expression and purification were conducted as previously published. Briefly, the monomeric ^15N-labeled Langerin and DC-SIGN carbohydrate recognition domains (CRDs) were expressed insolubly in E. coli BL21* (DE3) (Invitrogen). Following enzymatic cell lysis, inclusion bodies were harvested and subsequently solubilized. The sample was centrifuged and the Langerin and DC-SIGN CRDs were refolded overnight via rapid dilution. Next, the sample was dialyzed overnight, centrifuged and purified via StrepTactin affinity chromatography (Iba). […] The concentration of Langerin and DC-SIGN CRDs was determined via UV spectroscopy (A280, 0.1%=3.19 and A280, 0.1%=2.98). Purity and monodispersity of Langerin and DC-SIGN CRD samples were analyzed via SDS PAGE and DLS. […]
KD determination. KD values were determined in titration experiments at six ligand concentrations [L]T. Samples were prepared via serial dilution. Chemical shift perturbations CSPs for Langerin CRD resonances in the fast or fast-to-intermediate exchange regime observed upon titration with ligand were calculated via Equation 1 (Williamson, M. P. Using Chemical Shift Perturbation to Characterise Ligand Binding. Prog Nucl Magn Reson Spectrosc 73, 1-16 (2013)). […]

T1 sequence (Q9UJ71 193-328 V278A): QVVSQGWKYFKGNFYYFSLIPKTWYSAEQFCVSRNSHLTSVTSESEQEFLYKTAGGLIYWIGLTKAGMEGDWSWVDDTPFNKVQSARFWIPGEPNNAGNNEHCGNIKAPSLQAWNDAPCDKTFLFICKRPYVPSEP

Question: For CC(=O)NCCO[C@H]1O[C@H](CO)[C@@H](O)[C@H](O)[C@@H]1O [Man analog 21], which Kd is on record?
Answer: The Kd was 12 ± 1 mM.
